Several values for one entry are separate records, joined by “and”; a condition that tells them apart may be missing. Equal entries are not always repeated.
Experiment: xn = mol fraction of the nth substance listed

CCC(=O)c1ccccc1 + CCOCCO
viscosity [mPa·s], 101 kPa
Conditions | x1 = 0.0756 | x1 = 0.1554 | x1 = 0.2397 | x1 = 0.3291 | x1 = 0.4239 | x1 = 0.5246 | x1 = 0.6319 | x1 = 0.7464 | x1 = 0.8688
303.15 K | 1.562 | 1.555 | 1.547 | 1.54 | 1.532 | 1.526 | 1.522 | 1.517 | 1.515
308.15 K | 1.466 | 1.464 | 1.462 | 1.461 | 1.461 | 1.461 | 1.462 | 1.464 | 1.466
313.15 K | 1.366 | 1.369 | 1.372 | 1.376 | 1.381 | 1.387 | 1.394 | 1.401 | 1.41
318.15 K | 1.279 | 1.285 | 1.291 | 1.3 | 1.309 | 1.32 | 1.331 | 1.343 | 1.357

NCc1ccccc1 + C1COCCO1
303.15 K, 101 kPa
Conditions | viscosity [mPa·s]
x1 = 0.0802 | 1.116
x1 = 0.164 | 1.158
x1 = 0.2516 | 1.199
x1 = 0.3434 | 1.238
x1 = 0.4396 | 1.276
x1 = 0.5406 | 1.311
x1 = 0.6467 | 1.343
x1 = 0.7584 | 1.372
x1 = 0.8759 | 1.396

CC(=O)Nc1ccc(O)cc1 + O
viscosity, 101 kPa
Conditions | x1 = 0.00011 | x1 = 0.000241 | x1 = 0.000483 | x1 = 0.000727 | x1 = 0.000975 | x1 = 0.00122
298.15 K | 0.8928 mPa·s and 0.8928 mPa·s | 0.8964 mPa·s and 0.8964 mPa·s | 0.9001 mPa·s and 0.9001 mPa·s | 0.9061 mPa·s and 0.9061 mPa·s | 0.9121 mPa·s and 0.9121 mPa·s | 0.9178 mPa·s and 0.9178 mPa·s
308.15 K | 0.7208 mPa·s and 0.7208 mPa·s | 0.7243 mPa·s and 0.7243 mPa·s | 0.7281 mPa·s and 0.7279 mPa·s | 0.7329 mPa·s and 0.7329 mPa·s | 0.7378 mPa·s and 0.7378 mPa·s | 0.7424 mPa·s and 0.7424 mPa·s
318.15 K | 0.598 mPa·s and 0.598 mPa·s | 0.6004 mPa·s and 0.6004 mPa·s | 0.6053 mPa·s and 0.6053 mPa·s | 0.6102 mPa·s and 0.6102 mPa·s | 0.6151 mPa·s and 0.6151 mPa·s | 0.6197 mPa·s and 0.6197 mPa·s

O=C1c2ccccc2C(=O)N1c1ccccc1 + c1ccncc1
Conditions | viscosity [mPa·s]
298.15 K, 101 kPa, x1 = 0.0129 | 0.9606

C=C(C)C(=O)OCCCC + C1CCCCC1
viscosity [mPa·s], 101 kPa
Conditions | 298.15 K | 308.15 K
x1 = 0.056 | 0.866 | 0.737
x1 = 0.1555 | 0.835 | 0.711
x1 = 0.2562 | 0.812 | 0.692
x1 = 0.3534 | 0.797 | 0.68
x1 = 0.4548 | 0.789 | 0.673
x1 = 0.4924 | 0.788 | 0.673
x1 = 0.5528 | 0.788 | 0.673
x1 = 0.6497 | 0.794 | 0.678
x1 = 0.7645 | 0.81 | 0.692
x1 = 0.8529 | 0.83 | 0.708
x1 = 0.9568 | 0.861 | 0.735

O=C[C@H](O)[C@@H](O)[C@H](O)[C@H](O)CO + CS(C)=O
viscosity [mPa·s], 101 kPa
Conditions | x1 = 0.04081 | x1 = 0.08276 | x1 = 0.1291 | x1 = 0.1784
298.15 K | 3.819 | 8.234 | 21.23 | 62.65
308.15 K | 2.988 | 5.977 | 13.9 | 36.04
318.15 K | 2.408 | 4.525 | 9.672 | 22.4

S=C=S + CCOC(C)=O
298.15 K, 101 kPa
Conditions | viscosity [mPa·s]
x2 = 0.1445 | 0.367
x2 = 0.3581 | 0.389
x2 = 0.6307 | 0.416

CCCCCCCCCCCO + CCCCCCCCCO
viscosity [mPa·s]
Conditions | x2 = 0.116 | x2 = 0.3375 | x2 = 0.5442 | x2 = 0.7372 | x2 = 0.7995 | x2 = 0.9152
298.15 K, 101 kPa | – | – | – | – | 10.35 | –
298.15 K, 101.8 kPa | 13.57 | 12.52 | – | – | – | 9.874
308.15 K, 101.8 kPa | 9.384 | 8.667 | 8.041 | 7.476 | – | 6.965
318.15 K, 101.8 kPa | 6.631 | 6.157 | 5.752 | 5.366 | – | 5.017

C=CCN=C=S + NCCN
313.15 K, 100 kPa
Conditions | viscosity [mPa·s]
x1 = 0.15 | 2.956
x1 = 0.2794 | 6.678
x1 = 0.4515 | 71.46
x1 = 0.4948 | 155.4
x1 = 0.5496 | 648.5
x1 = 0.5994 | 2470
x1 = 0.667 | 61100
x1 = 0.7502 | 281.4
x1 = 0.851 | 55.46

CC(C)NC(C)C + CCCCO
viscosity [mPa·s], 100 kPa
Conditions | 298.15 K | 303.15 K | 308.15 K
x1 = 0.0499 | 2.316 | 2.061 | 1.793
x1 = 0.1095 | 2.056 | 1.834 | 1.609
x1 = 0.1542 | 1.88 | 1.688 | 1.483
x1 = 0.2062 | 1.699 | 1.529 | 1.353
x1 = 0.25 | 1.552 | 1.405 | 1.251
x1 = 0.2969 | 1.414 | 1.285 | 1.149
x1 = 0.4059 | 1.129 | 1.037 | 0.94
x1 = 0.5062 | 0.916 | 0.849 | 0.777
x1 = 0.6009 | 0.755 | 0.707 | 0.656
x1 = 0.7043 | 0.62 | 0.583 | 0.548
x1 = 0.8059 | 0.516 | 0.489 | 0.467
x1 = 0.8543 | 0.477 | 0.451 | 0.432
x1 = 0.8987 | 0.444 | 0.42 | 0.402
x1 = 0.9489 | 0.408 | 0.391 | 0.374

CCOC(=O)CC(C)=O + CCCCO
viscosity [mPa·s], 100 kPa
Conditions | x1 = 0.077 | x1 = 0.1552 | x1 = 0.2375 | x1 = 0.324 | x1 = 0.4191 | x1 = 0.5209 | x1 = 0.6261 | x1 = 0.74 | x1 = 0.861
293.15 K | 2.378 | 2.032 | 1.795 | 1.639 | 1.567 | 1.564 | 1.56 | 1.565 | 1.603
298.15 K | 2.063 | 1.788 | 1.629 | 1.525 | 1.466 | 1.435 | 1.425 | 1.427 | 1.46

CC(C)NC(C)C + CC(C)O
viscosity [mPa·s], 100 kPa
Conditions | 298.15 K | 303.15 K | 308.15 K
x1 = 0.0499 | 1.789 | 1.565 | 1.397
x1 = 0.1033 | 1.565 | 1.393 | 1.253
x1 = 0.1405 | 1.437 | 1.28 | 1.153
x1 = 0.2062 | 1.245 | 1.108 | 1.004
x1 = 0.2498 | 1.123 | 1.012 | 0.922
x1 = 0.303 | 1.003 | 0.904 | 0.825
x1 = 0.4121 | 0.809 | 0.735 | 0.677
x1 = 0.4955 | 0.698 | 0.639 | 0.593
x1 = 0.5984 | 0.592 | 0.551 | 0.513
x1 = 0.6974 | 0.52 | 0.498 | 0.466
x1 = 0.7902 | 0.468 | 0.447 | 0.421
x1 = 0.8632 | 0.434 | 0.419 | 0.398
x1 = 0.9067 | 0.412 | 0.401 | 0.382
x1 = 0.9459 | 0.397 | 0.388 | 0.3694

From the CheMixHub viscosity set
